Measured values: patent publication US20260376293A1, “METHODS FOR STUDYING GPR158 PHARMACOLOGY AND IDENTIFICATION OF ITS LIGANDS” (UNIVERSITY OF FLORIDA RESEARCH FOUNDATION, INCORPORATED, priority 2022, published 2026)

Assays:
[1] = tested on: stress-induced depressive rat; conditions: cited from earlier work
GPR158 = target: T1, GPR158 (Homo sapiens, UniProt Q5T848); assay: BRET β-arrestin recruitment assay; type: cell-based; parameters: expressed in transfected cells; host or cells: HEK293 (HEK293FT in the BRET methods); conditions: yPET-β-arrestin-2, HEK293 cells
T1 sequence (Q5T848 24-1215): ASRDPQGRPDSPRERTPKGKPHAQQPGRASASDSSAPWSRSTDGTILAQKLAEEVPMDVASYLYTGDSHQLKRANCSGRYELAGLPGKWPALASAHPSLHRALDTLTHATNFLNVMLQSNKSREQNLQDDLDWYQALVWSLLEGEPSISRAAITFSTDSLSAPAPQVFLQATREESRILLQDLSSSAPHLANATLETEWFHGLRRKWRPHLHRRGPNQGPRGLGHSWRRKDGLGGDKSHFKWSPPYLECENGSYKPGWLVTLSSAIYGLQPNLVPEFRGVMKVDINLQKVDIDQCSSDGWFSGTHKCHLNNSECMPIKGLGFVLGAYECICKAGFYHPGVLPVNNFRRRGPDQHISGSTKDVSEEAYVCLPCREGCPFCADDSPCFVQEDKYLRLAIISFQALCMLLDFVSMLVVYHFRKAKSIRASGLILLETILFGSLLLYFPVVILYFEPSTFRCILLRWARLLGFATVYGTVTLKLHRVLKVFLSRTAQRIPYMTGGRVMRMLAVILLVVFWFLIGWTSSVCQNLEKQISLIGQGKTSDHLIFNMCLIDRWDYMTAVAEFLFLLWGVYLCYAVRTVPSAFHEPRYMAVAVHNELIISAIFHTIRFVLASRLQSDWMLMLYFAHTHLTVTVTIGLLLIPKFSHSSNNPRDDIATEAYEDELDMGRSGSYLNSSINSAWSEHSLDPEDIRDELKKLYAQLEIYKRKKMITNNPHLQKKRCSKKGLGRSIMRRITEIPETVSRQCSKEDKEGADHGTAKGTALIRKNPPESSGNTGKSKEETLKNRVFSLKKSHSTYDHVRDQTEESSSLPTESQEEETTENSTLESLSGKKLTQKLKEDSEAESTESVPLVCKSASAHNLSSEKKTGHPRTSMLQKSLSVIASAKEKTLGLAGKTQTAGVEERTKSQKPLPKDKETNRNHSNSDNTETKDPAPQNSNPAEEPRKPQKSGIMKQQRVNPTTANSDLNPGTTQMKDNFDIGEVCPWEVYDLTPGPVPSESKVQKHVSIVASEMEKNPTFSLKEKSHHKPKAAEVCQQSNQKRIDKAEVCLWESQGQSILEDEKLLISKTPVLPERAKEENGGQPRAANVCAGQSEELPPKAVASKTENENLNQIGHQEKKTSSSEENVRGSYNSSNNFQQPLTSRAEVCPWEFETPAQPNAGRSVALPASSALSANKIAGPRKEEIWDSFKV
From the text: FIGS. 6A-6B. Effect of glycine on GPR158 coupling to β-arrestin. A) Schematic of the BRET based β-arrestin recruitment assay B) Dose response profile evaluating recruitment of β-arrestin using BRET-based recruitment assay that measures association of yPET-β-arrestin-2 with Rluc8-tagged receptor: GPR158 or kOR used as a positive control. Constructs were co-transfected into HEK293 cells stimulated with increasing concentration of U50488 or glycine. Data shown fold over basal of 4 independent experiments performed in triplicate mean±s.e.m.
The inventors further tested whether glycine or taurine could induce GPR158 to activate G proteins as canonical GPCRs do. In these experiments, the inventors used a reverse strategy where the inventors monitored generation of the BRET signal in the same assay (FIG. 5A).
Cells were co-transfected with Rluc-tagged receptors and YPet-β-arrestin2. Coelenterazine H were diluted at 5 μM in BRET buffer and added to cells with glycine or U50488 as indicated. BRET ratio was determined by calculating the ratio of the light emitted by the Venus (535 nm with a 30 nm band path width) over the light emitted by RLuc (475 nm with a 30 nm band path width) in order to measure an increase of the signal when β-arrestin is recruited. BRET ratio was calculated and fold over basal response was plotted as a function of kOR condition.

β-arrestin recruitment to GPR158 (GPR158) | Structure (SMILES) | antidepressant effect [1]
– | NCCS(=O)(=O)O [taurine, 2-aminoethanesulfonic acid] | antidepressant effect
no significant response | NCC(=O)O [glycine] | –
